Assay results from patent US9492460B2, “Carbazole compounds useful as bromodomain inhibitors” (Bristol-Myers Squibb Company, priority 2013, dated 2016).
pIC50: −log10 of the molar value.

Target: T1, bromodomain BRD4 (44-168), BRD4 (333-460), and BRD4 (1-477 or 44-460) (Homo sapiens, UniProt O60885)
T1 construct: BRD4(44-168), BRD4(333-460), BRD4(44-460), BRD4(1-477), O60885-1; fused on or other part: N-terminal BirA biotinylation motif, biotinylated; The TVMV-cleavable His6 tag is removed, except in some BRD4(44-460) runs detected with anti-His terbium cryptate
Assay: Time Resolved Fluorescence Resonance Energy Transfer (TR-FRET) binding assay
Conditions: one of the FRET assays described

Structure (SMILES) | pIC50
Cc1noc(C)c1-c1cc(C(N)=O)c2c3cc(C(=O)N4CC[C@@H](F)C4)ccc3n(Cc3ccccc3)c2c1 [Example 60] | > 7.30
Cc1noc(C)c1-c1cc(C(N)=O)c2c3cc(C(=O)N4CCC(F)(F)C4)ccc3n(Cc3ccccc3)c2c1 [Example 61] | > 7.30
Cc1noc(C)c1-c1cc(C(N)=O)c2c3cc(C(=O)N4CCO[C@H](C)C4)ccc3n(Cc3ccccc3)c2c1 [Example 62] | > 7.30
Cc1noc(C)c1-c1cc(C(N)=O)c2c3cc(C(=O)N4C(C)(C)CC(O)CC4(C)C)ccc3n(Cc3ccccc3)c2c1 [Example 63] | > 7.30
Cc1noc(C)c1-c1cc(C(N)=O)c2c3cc(C(=O)N4CC(F)C4)ccc3n(Cc3ccccc3)c2c1 [Example 65] | > 7.30
Cc1noc(C)c1-c1cc(C(N)=O)c2c3cc(C(=O)N4CCCC4)ccc3n(Cc3ccccc3)c2c1 [Example 66] | > 7.30
Cc1noc(C)c1-c1cc(C(N)=O)c2c3cc(C(=O)N4CCC(O)CC4)ccc3n(Cc3ccccc3)c2c1 [Example 67] | > 7.30
Cc1noc(C)c1-c1cc(C(N)=O)c2c3cc(C(=O)N4CCC(CO)CC4)ccc3n(Cc3ccccc3)c2c1 [Example 68] | > 7.30
Cc1noc(C)c1-c1cc(C(N)=O)c2c3cc(C(=O)N4CC(C)OC(C)C4)ccc3n(Cc3ccccc3)c2c1 (centres unmarked) [Example 69] | > 7.30
COC1CCN(C(=O)c2ccc3c(c2)c2c(C(N)=O)cc(-c4c(C)noc4C)cc2n3Cc2ccccc2)CC1 [Example 70] | > 7.30
Cc1noc(C)c1-c1cc(C(N)=O)c2c3cc(C(=O)N4CCC4)ccc3n(Cc3ccccc3)c2c1 [Example 71] | > 7.30
Cc1noc(C)c1-c1cc(C(N)=O)c2c3cc(C(=O)N4CCCC(C)(C)C4)ccc3n(Cc3ccccc3)c2c1 [Example 72] | > 7.30
Cc1noc(C)c1-c1cc(C(N)=O)c2c3cc(C(=O)N4CCCCC4C)ccc3n(Cc3ccccc3)c2c1 (centres unmarked) [Example 73] | > 7.30
Cc1noc(C)c1-c1cc(C(N)=O)c2c3cc(C(=O)N4CCC(C)CC4)ccc3n(Cc3ccccc3)c2c1 [Example 74] | > 7.30
Cc1noc(C)c1-c1cc(C(N)=O)c2c3cc(C(=O)NCCN4CCOCC4)ccc3n(Cc3ccccc3)c2c1 [Example 76] | > 7.30
Cc1noc(C)c1-c1cc(C(N)=O)c2c3cc(C(=O)N4COCC4(C)C)ccc3n(Cc3ccccc3)c2c1 [Example 77] | > 7.30
Cc1noc(C)c1-c1cc(C(N)=O)c2c3cc(C(=O)N4CC(F)(F)C4)ccc3n(Cc3ccccc3)c2c1 [Example 78] | > 7.30

Structure (SMILES) | pIC50
Cc1noc(C)c1-c1cc(C(N)=O)c2c3cc(C(=O)N4CC[C@H](F)C4)ccc3n(Cc3c(F)cccc3F)c2c1 [Example 79, 9-(2,6-difluorobenzyl)-2-(3,5-dimethyl-4-isoxazolyl)-6-(((3S)-3-fluoro-1-pyrrolidinyl)carbonyl)-9H-carbazole-4-carboxamide] | > 7.30
Cc1noc(C)c1-c1cc(C(N)=O)c2c3cc(C(=O)N4CCC(F)C4)ccc3n(Cc3ccc(Cl)cc3)c2c1 (centres unmarked) [Example 80] | > 7.30
Cc1noc(C)c1-c1cc(C(N)=O)c2c3cc(C(=O)N4CCC(F)C4)ccc3n(Cc3cccc(F)c3)c2c1 (centres unmarked) [Example 81] | > 7.30
COc1ccccc1Cn1c2ccc(C(=O)N3CCC(F)C3)cc2c2c(C(N)=O)cc(-c3c(C)noc3C)cc21 (centres unmarked) [Example 82] | > 7.30
Cc1csc(Cn2c3ccc(C(=O)N4CCC(F)C4)cc3c3c(C(N)=O)cc(-c4c(C)noc4C)cc32)n1 (centres unmarked) [Example 83] | > 7.30
Cc1noc(C)c1-c1cc(C(N)=O)c2c3cc(C(=O)N4CCC(F)C4)ccc3n(C(C)c3ccccc3)c2c1 (centres unmarked) [Example 84] | > 7.30
Cc1noc(C)c1-c1cc(C(N)=O)c2c3cc(C(=O)N4CC(F)C4)ccc3n(C(C)c3ccccc3)c2c1 (centres unmarked) [Example 85, 2-(3,5-dimethyl-4-isoxazolyl)-6-((3-fluoro-1-azetidinyl)carbonyl)-9-(1-phenylethyl)-9H-carbazole-4-carboxamide] | > 7.30
Cc1noc(C)c1-c1cc(C(N)=O)c2c3cc(C(=O)N4CC(F)C4)ccc3n(Cc3ccc(Cl)c(F)c3)c2c1 [Example 86] | > 7.30
Cc1noc(C)c1-c1cc(C(N)=O)c2c3cc(C(=O)N4CC(F)C4)ccc3n(Cc3ccc(Cl)cc3F)c2c1 [Example 87] | > 7.30
Cc1noc(C)c1-c1cc(C(N)=O)c2c3cc(C(=O)N4CC(F)C4)ccc3n(C(C)c3cccc(C(F)(F)F)c3)c2c1 (centres unmarked) [Example 88] | > 7.30
Cc1noc(C)c1-c1cc(C(N)=O)c2c3cc(C(=O)N4CC(F)C4)ccc3n(C(C)c3ccccc3C(F)(F)F)c2c1 (centres unmarked) [Example 89] | > 7.30
Cc1noc(C)c1-c1cc(C(N)=O)c2c3cc(C(=O)N4CC(F)C4)ccc3n(CC3CCC3)c2c1 [Example 90] | > 7.30
Cc1noc(C)c1-c1cc(C(N)=O)c2c3cc(C(=O)N4CC(F)C4)ccc3n(C(C)c3ccc(F)cc3)c2c1 (centres unmarked) [Example 91] | > 7.30
Cc1noc(C)c1-c1cc(C(N)=O)c2c3cc(C(=O)N4CC(F)C4)ccc3n(CC3CC3)c2c1 [Example 92] | > 7.30
Cc1noc(C)c1-c1cc(C(N)=O)c2c3cc(C(=O)N4CC(F)C4)ccc3n(Cc3ccc(F)cc3)c2c1 [Example 93] | > 7.30
Cc1noc(C)c1-c1cc(C(N)=O)c2c3cc(C(=O)N4CC(F)C4)ccc3n(C(C)c3ccc(Cl)cc3)c2c1 (centres unmarked) [Example 94, 9-(1-(4-chlorophenyl)ethyl)-2-(3,5-dimethyl-4-isoxazolyl)-6-((3-fluoro-1-azetidinyl)carbonyl)-9H-carbazole-4-carboxamide] | > 7.30

Further lines, results first:

pIC50 | Structure (SMILES)
> 7.30 | Cc1noc(C)c1-c1cc(C(N)=O)c2c3cc(C(=O)N4CC(F)(F)C4)ccc3n(Cc3ccc(Cl)cc3)c2c1 [Example 95, 9-(4-chlorobenzyl)-6-((3,3-difluoro-1-azetidinyl)carbonyl)-2-(3,5-dimethyl-4-isoxazolyl)-9H-carbazole-4-carboxamide]
> 6.30 | CNC(=O)c1cc(-c2c(C)noc2C)cc2[nH]c3ccc(C(=O)N4CC(F)(F)C4)cc3c12 [Example 99, 6-((3,3-difluoro-1-azetidinyl)carbonyl)-2-(3,5-dimethyl-4-isoxazolyl)-N-methyl-9H-carbazole-4-carboxamide]
> 6.30 | CNC(=O)c1cc(-c2c(C)noc2C)cc2c1c1cc(C(=O)N3CC(F)(F)C3)ccc1n2Cc1ccc(Cl)cc1 [Example 100, 9-(4-chlorobenzyl)-6-(3,3-difluoroazetidine-1-carbonyl)-2-(3,5-dimethylisoxazol-4-yl)-N-methyl-9H-carbazole-4-carboxamide]
> 6.30 | CNC(=O)c1cc(-c2c(C)noc2C)cc2[nH]c3ccc(C(=O)N4CC(F)C4)cc3c12 [Example 101, 2-(3,5-dimethyl-4-isoxazolyl)-6-((3-fluoro-1-azetidinyl)carbonyl)-N-methyl-9H-carbazole-4-carboxamide]
> 7.30 | CNC(=O)c1cc(-c2c(C)noc2C)cc2c1c1cc(C(=O)N3CC(F)C3)ccc1n2Cc1ccc(Cl)cc1 [Example 102, 9-(4-chlorobenzyl)-2-(3,5-dimethylisoxazol-4-yl)-6-(3-fluoroazetidine-1-carbonyl)-N-methyl-9H-carbazole-4-carboxamide]
> 7.30 | CNC(=O)c1cc(-c2c(C)noc2C)cc2c1c1cc(C(=O)N3CC(F)C3)ccc1n2Cc1ccc(F)cc1 [Example 103]
> 7.30 | CNC(=O)c1cc(-c2c(C)noc2C)cc2c1c1cc(C(=O)N3CC(F)C3)ccc1n2Cc1cccc(F)c1 [Example 104]
> 7.30 | CNC(=O)c1cc(-c2c(C)noc2C)cc2c1c1cc(C(=O)N3CC(F)C3)ccc1n2Cc1c(F)cccc1F [Example 105]
> 6.30 | CNC(=O)c1cc(-c2c(C)noc2C)cc2c1c1cc(C(=O)N3CC(F)C3)ccc1n2Cc1ccc(F)cc1F [Example 106]
> 7.30 | CNC(=O)c1cc(-c2c(C)noc2C)cc2c1c1cc(C(=O)N3CC(F)C3)ccc1n2Cc1cccc(F)c1F [Example 107]
> 7.30 | CNC(=O)c1cc(-c2c(C)noc2C)cc2c1c1cc(C(=O)N3CC(F)C3)ccc1n2Cc1ccc(C#N)cc1 [Example 108]
> 7.30 | CNC(=O)c1cc(-c2c(C)noc2C)cc2c1c1cc(C(=O)N3CC(F)C3)ccc1n2Cc1ccc(Cl)c(F)c1 [Example 109]
> 7.30 | CNC(=O)c1cc(-c2c(C)noc2C)cc2c1c1cc(C(=O)N3CC(F)C3)ccc1n2Cc1ccc(Cl)cc1F [Example 110]
> 7.30 | CNC(=O)c1cc(-c2c(C)noc2C)cc2c1c1cc(C(=O)N3CC(F)C3)ccc1n2C(C)c1ccc(Cl)cc1 (centres unmarked) [Example 111]
> 6.30 | CNC(=O)c1cc(-c2c(C)noc2C)cc2c1c1cc(C(=O)N3CC(F)C3)ccc1n2C(C)c1ccc(F)cc1 (centres unmarked) [Example 112]
> 7.30 | CNC(=O)c1cc(-c2c(C)noc2C)cc2c1c1cc(C(=O)N3CC(F)C3)ccc1n2C(C)c1ccccc1 (centres unmarked) [Example 113]
> 7.30 | CNC(=O)c1cc(-c2c(C)noc2C)cc2c1c1cc(C(=O)N3CC(F)C3)ccc1n2CC1CCC1 [Example 114]
> 7.30 | CNC(=O)c1cc(-c2c(C)noc2C)cc2c1c1cc(C(=O)N3CC(F)C3)ccc1n2CC1CC1 [Example 115]
> 7.30 | CNC(=O)c1cc(-c2c(C)noc2C)cc2c1c1cc(C(=O)N3CC(F)C3)ccc1n2Cc1ccccn1 [Example 116, 2-(3,5-dimethylisoxazol-4-yl)-6-(3-fluoroazetidine-1-carbonyl)-N-methyl-9-(pyridin-2-ylmethyl)-9H-carbazole-4-carboxamide]
> 7.30 | CNC(=O)c1cc(-c2c(C)noc2C)cc2c1c1cc(C(=O)N3C[C@@H](C)O[C@@H](C)C3)ccc1n2Cc1ccccc1 [Example 117, 9-benzyl-2-(3,5-dimethylisoxazol-4-yl)-6-(cis-2,6-dimethylmorpholine-4-carbonyl)-N-methyl-9H-carbazole-4-carboxamide]
